Measured values reported in patent US20120129811A1, “TRICYCLIC INHIBITORS OF PRO-MATRIX METALLOPROTEINASE ACTIVATION” (priority 2010, published 2012).
Where a name gives a salt, the structure may show the parent alone.

Columns and labels:
[1] = molecular target: T1, proMMP13(1-268) (SEQ ID NO:7) (Homo sapiens, UniProt P45452); assay: ThermoFluor binding assay with proMMP13(1-268)
T1 construct: 6xHis (C); made in house; host or cells: HEK293 (transient, secreted)
In short: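 Thermal shift of desalted proMMP13(1-268) at 3.5 μM final, in 50 mM HEPES pH 7.0, 100 mM NaCl, 0.001% Tween-20, 2.5 mM MgCl2, 300 μM CaCl2, with 25 μM 1,8-ANS. Serially diluted compounds heated 40–90° C. at 1° C./min, fluorescence read at 500±25 nm. Tm fitted; binding modeled using DSC-derived thermodynamic parameters.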

[2] = molecular target: T2, proMMP13(1-268) activation by plasmin (Homo sapiens, UniProt P45452); assay: ProMMP13/Plasmin P126 Activation Assay; assay type: biochemical
T2 construct: 6xHis (C); made in house; host or cells: HEK293 (proMMP13)
Description: ProMMP13/Plasmin P126 Activation Assay
On the day of assay, proMMP13(1-268) (SEQ ID NO:7) purified from HEK293 cells and plasmin were diluted to 160 nM and 320 nM, respectively, in assay buffer. The reaction volume was 50 μL. […] The plate was sealed and incubated for 40 min at 37° C. […] Plasmin was not reactive towards P-126 substrate under these conditions.

[3] = molecular target: T3, proMMP9(20-445;ΔFnII) (SEQ ID NO:6) (Homo sapiens, UniProt P14780, DEL216-390); assay: ThermoFluor binding assay with proMMP9(20-445;ΔFnII)
T3 construct: start methionine (N); made in house; host or cells: E. coli BL21(DE3) RIL
T3 sequence (P14780 with tags, fused parts or gaps DEL216-390): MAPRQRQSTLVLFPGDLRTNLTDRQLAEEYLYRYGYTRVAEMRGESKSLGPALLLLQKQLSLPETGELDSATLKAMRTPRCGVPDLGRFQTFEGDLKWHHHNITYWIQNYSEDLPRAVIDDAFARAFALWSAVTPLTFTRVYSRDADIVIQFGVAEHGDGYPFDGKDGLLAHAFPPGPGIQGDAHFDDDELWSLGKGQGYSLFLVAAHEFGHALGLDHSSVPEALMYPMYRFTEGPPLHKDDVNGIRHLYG
In short: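 Protein thermal stability was measured with 2.8 μM proMMP9(20-445;ΔFnII) and 50 μM 1,8-ANS in 50 mM HEPES pH 7.0, 100 mM NaCl, 0.001% Tween-20, 2.5 mM MgCl2, 300 μM CaCl2, across serial compound dilutions. Samples were heated 40–90° C at 1° C/min with fluorescence read at 500 nm. Tm was fitted, and binding was derived from thermodynamic parameters obtained by DSC and ThermoFluor.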

[4] = molecular target: T4, full-length proMMP9(1-707) activation by catalytic MMP3 (Homo sapiens, UniProt P14780, R574P); assay: proMMP9/MMP3 P126 Activation Assay; assay type: biochemical
T4 construct: made in house; host or cells: proMMP9: HEK293 (secreted); MMP3: E. coli
Description: proMMP9/MMP3 P126 Activation Assay
The reaction volume was 50 μL. […] Reactivity of residual MMP3 towards P-126 substrate was minimal under these conditions.

[5] = molecular target: T5, proMMP9(67-444;ΔFnII) (SEQ ID NO:5) (Homo sapiens, UniProt P14780, DEL216-390); assay: ThermoFluor binding assay with proMMP9(67-444;ΔFnII)
T5 construct: start methionine (N); made in house; host or cells: E. coli BL21(DE3) RIL
T5 sequence (P14780 with tags, fused parts or gaps DEL216-390): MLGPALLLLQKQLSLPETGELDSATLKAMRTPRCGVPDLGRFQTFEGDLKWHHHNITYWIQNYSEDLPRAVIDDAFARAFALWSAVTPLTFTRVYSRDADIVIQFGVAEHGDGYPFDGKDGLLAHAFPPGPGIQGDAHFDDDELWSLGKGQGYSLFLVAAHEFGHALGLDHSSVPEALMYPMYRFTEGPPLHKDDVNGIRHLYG
In short: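 Thermal shift of 3.5 μM proMMP9(67-444;ΔFnII), desalted beforehand, with 50 μM 1,8-ANS in 50 mM HEPES pH 7.0, 100 mM NaCl, 2.5 mM MgCl2, 300 μM CaCl2, 0.001% Tween-20. Heated 40–90 °C at 1 °C/min, fluorescence read at 500 nm; binding fitted from Tm shifts using DSC- and ThermoFluor-derived unfolding parameters.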

T4 sequence (P14780 20-707 R574P): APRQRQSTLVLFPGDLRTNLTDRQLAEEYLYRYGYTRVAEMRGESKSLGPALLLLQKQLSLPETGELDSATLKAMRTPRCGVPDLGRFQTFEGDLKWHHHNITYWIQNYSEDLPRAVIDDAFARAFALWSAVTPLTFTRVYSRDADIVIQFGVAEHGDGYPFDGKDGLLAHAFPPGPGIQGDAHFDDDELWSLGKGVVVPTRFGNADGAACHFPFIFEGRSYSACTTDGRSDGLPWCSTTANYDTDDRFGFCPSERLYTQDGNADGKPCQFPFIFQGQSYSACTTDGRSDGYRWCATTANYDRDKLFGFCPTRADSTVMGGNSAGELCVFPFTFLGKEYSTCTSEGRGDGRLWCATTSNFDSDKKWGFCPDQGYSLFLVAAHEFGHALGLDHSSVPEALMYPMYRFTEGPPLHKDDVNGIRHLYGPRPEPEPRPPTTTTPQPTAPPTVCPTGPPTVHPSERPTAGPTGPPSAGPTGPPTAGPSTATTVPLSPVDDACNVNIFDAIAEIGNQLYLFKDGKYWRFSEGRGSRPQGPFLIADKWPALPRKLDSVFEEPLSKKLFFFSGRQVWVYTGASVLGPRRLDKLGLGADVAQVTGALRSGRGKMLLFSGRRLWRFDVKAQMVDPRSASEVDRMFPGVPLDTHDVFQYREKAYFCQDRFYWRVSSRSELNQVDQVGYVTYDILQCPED

Structure (SMILES) | Kd [1] [nM] | IC50 [2] [nM] | Kd [3] [nM] | IC50 [4] [nM] | Kd [5] [nM]
CC(C)Oc1ccc(C(N)=O)cc1Nc1nc2c(ccc3c2cnn3C)s1 [Example 30, 4-Isopropoxy-3-(6-methyl-6H-3-thia-1,6,7-triaza-as-indacen-2-ylamino)-benzamide.HCl] | 930 | 4500 | 120 | 190 | 310
CCn1cnc2ccc3sc(Nc4cc(C(N)=O)ccc4OC(C)C)nc3c21 [Example 33, 3-(8-Ethyl-8H-imidazo[4′,5′:3,4]-benzo[2,1-d]thiazol-2-ylamino)-4-isopropoxy-benzamide.HCl] | 580 | 1100 | 86 | 100 | 490
CC(C)Oc1ccc(C(N)=O)cc1Nc1nc2c(ccc3cnccc32)s1 [Example 90, 4-Isopropoxy-3-(thiazolo[4,5-f]isoquinolin-2-ylamino)-benzamide.TFA] | 2700 | 2500 | 280 | 200 | 3000
CC(C)Oc1ccc(C(N)=O)cc1Nc1nc2c(ccc3ccncc32)s1 [Example 89, 4-Isopropoxy-3-(thiazolo[5,4-h]isoquinolin-2-ylamino)-benzamide.TFA] | 6800 | 2800 | 3100 | 330 | 780
COc1ccc(F)cc1Nc1nc2c(ccc3c2ncn3C)s1 [Example 57, (5-Fluoro-2-methoxy-phenyl)-(6-methyl-6H-imidazo[4′,5′:3,4]benzo[2,1-d]thiazol-2-yl)-amine.HCl] | 2800 | ~6000 | 230 | 70 | 35
COc1cc(C(N)=O)ccc1Nc1nc2c(ccc3c2ncn3C)s1 [Example 51, 3-Methoxy-4-(6-methyl-6H-imidazo[4′,5′:3,4]benzo[2,1-d]thiazol-2-ylamino)-benzamide.HCl] | 8300 | > 20000 | 3100 | 200 | 400
CC(C)Oc1ccc(C(N)=O)cc1Nc1nc2c(ccc3c2ncn3C)s1 [Example 22, 4-Isopropoxy-3-(6-methyl-6H-imidazo[4′,5′:3,4]benzo[2,1-d]thiazol-2-ylamino)-benzamide.HCl] | 810 | 1900 | 170 | 92 | 100
COc1ccc(S(C)(=O)=O)cc1Nc1nc2c(ccc3c2cnn3C)s1 [Example 92, (5-Methanesulfonyl-2-methoxy-phenyl)-(6-methyl-6H-3-thia-1,6,7-triaza-as-indacen-2-yl)-amine.HCl] | – | ~6000 | 1100 | 130 | 410
